Key:
GLUT4 = molecular target: T1, GLUT4 (Homo sapiens, UniProt P14672); assay: [3H]2-DG uptake into LNCaP cells overexpressing GLUT4; type: cell-based; conditions: for inhibition at 5 µM: LNCaP cells transfected with GLUT4, 30 min
T1 construct: The full length GLUT1, GLUT4, and GLUT9 ORF cDNA clones were purchased from Addgene; host or cells: LNCaP
T1 sequence (P14672 1-509): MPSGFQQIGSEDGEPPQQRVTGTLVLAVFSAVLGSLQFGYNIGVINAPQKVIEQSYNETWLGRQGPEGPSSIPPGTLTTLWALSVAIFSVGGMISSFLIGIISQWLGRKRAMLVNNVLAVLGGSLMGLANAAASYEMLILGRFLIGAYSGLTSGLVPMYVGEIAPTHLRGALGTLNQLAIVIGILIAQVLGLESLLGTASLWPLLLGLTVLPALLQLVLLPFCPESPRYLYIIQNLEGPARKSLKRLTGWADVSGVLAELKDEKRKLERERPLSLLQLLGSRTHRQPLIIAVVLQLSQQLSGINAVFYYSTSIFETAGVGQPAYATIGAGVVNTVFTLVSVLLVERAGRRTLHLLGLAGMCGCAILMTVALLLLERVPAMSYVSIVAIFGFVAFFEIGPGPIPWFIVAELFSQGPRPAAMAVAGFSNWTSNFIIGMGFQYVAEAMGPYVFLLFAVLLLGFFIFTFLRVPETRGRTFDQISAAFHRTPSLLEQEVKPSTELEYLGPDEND
Description: (§1) As information regarding the expression pattern of individual GLUT members in LNCaP cells was lacking, quantitative real time polymerase chain reaction (qRT-PCR) was used to assess the mRNA levels of the hypoxia-responsive GLUT1 and GLUT3, and three other representative GLUT members, including the class I GLUT2 and GLUT4 and the class II GLUT9. Among these five members, LNCaP cells expressed GLUT1 and, to a much lesser extent, GLUT9, while the mRNA levels of GLUTs2-4 were negligible (FIG. 3B). To examine the isoform specificity of these inhibitors, LNCaP cells were ectopically transfected with plasmids encoding GLUT1, GLUT3, GLUT4, or GLUT9 vis-à-vis the pCMV control vector so that the increased glucose uptake in GLUT-transfected cells relative to pCMV control cells was indicative of the activity of the ectopically expressed GLUT protein.
(§2) Glucose Uptake Assay. LNCaP cells were seeded in six-well plates (3×10^5 cells/well) for 24 h. Cells were washed twice with Krebs-Ringer phosphate buffer (126 mM NaCl, 2.5 mM KCl, 25 mM NaHCO3, 1.2 mM NaH2PO4, 1.2 mM MgCl2, 2.5 mM CaCl2, pH 7.4) and were then treated with individual agents in Krebs-Ringer phosphate buffer. After 1.5 h, glucose uptake was initiated by adding 1 mL Krebs-Ringer buffer containing […] [^3H]2-DG (PerkinElmer Life Science) and […] non-radioactive 2-DG and was terminated by washing with cold PBS. The cells were lysed in […] lysis buffer (10 mM Tris-HCl pH 8.0, 0.1% SDS) and aliquots were taken for measurement of radioactivity using a scintillation counter (Beckman LS6500).
Plasmid Construction, Transient Transfection and Immunoblotting. The full length GLUT1, GLUT4, and GLUT9 ORF cDNA clones were purchased from Addgene (Cambridge, Mass.) and GLUT3 ORF cDNA was purchased from Origene Technologies (Rockville, Md.). GLUT1, GLUT3, and GLUT9 were subcloned into the HindIII/SalI sites and GLUT4 was subcloned into the EcoRI/SalI sites of pEGFP-N2 expression vector (Clontech, Palo Alto, Calif.). […]

LNCaP cells = assay: MTT cell viability assay, LNCaP; type: cell-based, human; conditions: for IC50: 72 h, MTT, 10% FBS
Experimental: Cell Viability Assay. Cell viability was determined using the 3-(4,5-dimethylthiazol-2-yl)-2,5-diphenyltetrazolium bromide (MTT) assay. Cancer cells were seeded at 5000 cells/well and normal cells were seeded at 8000 cells/well in 96-well plates and incubated in 10% FBS-supplemented medium for 24 h. Cells were then treated with individual agents for 72 h. Drug-containing medium was replaced with medium containing MTT (0.5 mg/mL), followed by incubation at 37° C. for 1 h. After removal of medium, the reduced MTT dye in each well was solubilized in 100 μL of DMSO and absorbance at 570 nm was measured.
Compound 30 was evaluated for antiproliferative activity in panels of different human cancer cells lines, including those of prostate, breast and pancreatic cancers. In all experiments, cells were treated with a range of concentrations of Compound 30 in the presence of 10% fetal bovine serum (FBS). Cell viability was then determined after 72 h of treatment using the 3-(4,5-dimethylthiazol-2-yl)-2,5-diphenyltetrazolium bromide (MTT) assay. […] It is noteworthy that despite this high antiproliferative potency, normal human prostate epithelial cells (PrECs) were resistant to the cytotoxic effect of Compound 30 even at 10 μM.

GLUT1 = molecular target: T2, GLUT1 (Homo sapiens, UniProt P11166); assay: [3H]2-DG uptake into LNCaP cells overexpressing GLUT1; type: cell-based; conditions: for IC50: LNCaP cells overexpressing GLUT1, read-out: IC50 in inhibiting GLUT1-mediated [3H]2-DG uptake; for inhibition at 5 µM: LNCaP cells transfected with GLUT1, 30 min
T2 construct: The full length GLUT1, GLUT4, and GLUT9 ORF cDNA clones were purchased from Addgene; EGFP (from the pEGFP-N2 vector); host or cells: LNCaP
T2 sequence (P11166 1-492): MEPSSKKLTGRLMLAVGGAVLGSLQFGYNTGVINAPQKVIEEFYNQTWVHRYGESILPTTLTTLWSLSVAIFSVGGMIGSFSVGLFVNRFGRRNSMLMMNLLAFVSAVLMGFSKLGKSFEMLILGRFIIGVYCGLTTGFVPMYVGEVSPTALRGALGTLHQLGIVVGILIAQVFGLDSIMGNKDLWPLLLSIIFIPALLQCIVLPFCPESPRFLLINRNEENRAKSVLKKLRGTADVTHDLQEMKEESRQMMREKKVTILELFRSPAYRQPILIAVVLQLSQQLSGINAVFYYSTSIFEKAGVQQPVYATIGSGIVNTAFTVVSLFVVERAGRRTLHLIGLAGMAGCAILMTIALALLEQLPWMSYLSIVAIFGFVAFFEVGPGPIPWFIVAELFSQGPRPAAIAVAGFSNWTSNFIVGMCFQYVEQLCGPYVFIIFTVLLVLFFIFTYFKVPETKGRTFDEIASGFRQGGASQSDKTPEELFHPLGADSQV
Description: as §1, §2
Plasmid Construction, Transient Transfection and Immunoblotting. The full length GLUT1, GLUT4, and GLUT9 ORF cDNA clones were purchased from Addgene (Cambridge, Mass.) and GLUT3 ORF cDNA was purchased from Origene Technologies (Rockville, Md.). GLUT1, GLUT3, and GLUT9 were subcloned into the HindIII/SalI sites and GLUT4 was subcloned into the EcoRI/SalI sites of pEGFP-N2 expression vector (Clontech, Palo Alto, Calif.). Transfections were performed by electroporation using Nucleofector kit R of the Amaxa Nucleofector system (Lonza, Walkersville, Md.) according to the manufacturer's protocol. Immunoblotting was performed using cells lysates harvested with SDS lysis buffer (1% SDS, 50 mM Tris-HCl pH 8.0, 10 mM EDTA) containing 1× protease inhibitor cocktail (Sigma) and phosphatase inhibitor and were electrophoresed in 8˜12% SDS polyacrylamide gels and then transferred onto nitrocellulose membranes. After blotting in 5% nonfat dry milk, the membranes were incubated with primary antibodies at 1:1,000 dilution in TBS-Tween 20 overnight at 4° C., and then secondary antibodies conjugated with horseradish peroxidase at 1:5,000 dilution in TBS-Tween 20 for 1 hour at room temperature. […]

inhibition at 5 µM (GLUT4) | IC50 (LNCaP cells; Homo sapiens, LNCaP) | IC50 (GLUT1) | inhibition at 5 µM (GLUT1) | IC50 (GLUT4; LNCaP cells overexpressing GLUT4, read-out: IC50 for GLUT4-mediated [3H]2-DG uptake) | IC50 (LNCaP cells) | improvement over compound 1 (IC50, [3H]-2DG uptake and viability of LNCaP cells) (LNCaP cells; relative to compound 1) | SMILES
32% | 4200 nM | 5000 nM | 53% |  |  |  | CCC(CC)CN1C(=O)S/C(=C\c2ccc(O)c(C(F)(F)F)c2)C1=O [Compound 5]
42% | 1500 nM | 2000 nM | 73% | ≥ 5000 nM | 1500 to 1700 nM | 40 fold | CC(CN1C(=O)S/C(=C\c2ccc(O)c(C(F)(F)F)c2)C1=O)(CC(F)(F)F)CC(F)(F)F [Compound 30, 5-(4-Hydroxy-3-trifluoromethyl-benzylidene)-3-[4,4,4-trifluoro-2-methyl-2-(2,2,2-trifluoro-ethyl)-butyl]-thiazolidine-2,4-dione]
